Measurements taken from PubChem BioAssay (NCI).
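Method: 48-hour compound exposure of cells in 96-well plates, five concentrations, linear interpolation of endpoints. The concentration for 50% growth inhibition is given as GI50. TGI: concentration producing complete growth inhibition.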

Tests used:
Test in all cases: NCI tumour cell line growth inhibition, 48 h
[1] = system: OVCAR-3 ovarian
[2] = system: SK-MEL-2 melanoma
[3] = system: MOLT-4 leukemia
[4] = system: DU-145 prostate
[5] = system: BT-549 breast
[6] = system: TK-10 renal
[7] = system: SNB-75 CNS
[8] = system: SF-539 CNS
[9] = system: SK-MEL-28 melanoma
[10] = system: UO-31 renal
[11] = system: PC-3 prostate
[12] = system: RXF 393 renal
[13] = system: HCC-2998 colon
[14] = system: MDA-MB-435
[15] = system: UACC-257 melanoma
[16] = system: K-562 leukemia
[17] = system: U251 CNS
[18] = system: HOP-62 NSCLC
[19] = system: RPMI-8226 leukemia
[20] = system: SF-295 CNS
[21] = system: A498 renal
[22] = system: KM12 colon
[23] = system: OVCAR-5 ovarian
[24] = system: UACC-62 melanoma
[25] = system: LOX IMVI melanoma
[26] = system: HS 578T breast
[27] = system: MDA-MB-468 breast
[28] = system: SNB-19 CNS
[29] = system: HL-60(TB) leukemia
[30] = system: OVCAR-8 ovarian
[31] = system: IGROV1 ovarian
[32] = system: HCT-116 colon
[33] = system: SK-MEL-5 melanoma
[34] = system: ACHN renal
[35] = system: SR leukemia
[36] = system: NCI-H226 lung
[37] = system: SN12C renal
[38] = system: NCI-H460 lung
[39] = system: HOP-92 NSCLC
[40] = system: MCF7 breast
[41] = system: MDA-MB-231 breast
[42] = system: A549 NSCLC
[43] = system: M14 melanoma
[44] = system: NCI-H522 lung
[45] = system: CCRF-CEM leukemia
[46] = system: HT29 colon
[47] = system: HCT-15 colon
[48] = system: NCI-H23 lung
[49] = system: OVCAR-4 ovarian
[50] = system: MALME-3M melanoma
[51] = system: SF-268 CNS
[52] = system: 786-0 renal
[53] = system: COLO 205 colon
[54] = system: EKVX NSCLC
[55] = system: SW-620 colon
[56] = system: T-47D breast
[57] = system: CAKI-1 renal
[58] = system: SK-OV-3 ovarian

N#CC1=C(c2cccs2)Nc2c(c(-c3ccccc3)nn2-c2ccccc2)C12C(=O)Nc1ccccc12 (configuration not stated)
GI50 [1]: 20.9 µM
TGI [1]: 73.2 µM
GI50 [2]: 15.8 µM
TGI [2]: 38.3 µM
GI50 [3]: 12 µM
TGI [3]: 41.1 µM
GI50 [4]: 20.3 µM
TGI [4]: 46.6 µM
GI50 [5]: 5.86 µM
TGI [5]: 21 µM
GI50 [6]: 13.6 µM
TGI [6]: 31.1 µM
GI50 [7]: 8.48 µM
TGI [7]: 30.8 µM
GI50 [8]: 15.2 µM
TGI [8]: 31.7 µM
GI50 [9]: 14.9 µM
TGI [9]: 29.3 µM
GI50 [10]: 9.9 µM
TGI [10]: > 100 µM
GI50 [11]: 8.38 µM
TGI [11]: 24.2 µM
GI50 [12]: 4.91 µM
TGI [12]: 21.1 µM
GI50 [13]: 14 µM
TGI [13]: 35.6 µM
GI50 [14]: 17.8 µM
TGI [14]: 37.2 µM
GI50 [15]: 18.1 µM
TGI [15]: 48.3 µM
GI50 [16]: 6.17 µM
TGI [16]: 38.9 µM
GI50 [17]: 6.23 µM
TGI [17]: 20.6 µM
GI50 [18]: 17 µM
TGI [18]: 44.1 µM
GI50 [19]: 8.6 µM
TGI [19]: 83.7 µM
GI50 [20]: 12.8 µM
TGI [20]: 33.3 µM
GI50 [21]: 17.8 µM
TGI [21]: 35.3 µM
GI50 [22]: 5.13 µM
TGI [22]: 20.4 µM
GI50 [23]: 19.8 µM
TGI [23]: 45.6 µM
GI50 [24]: 13.7 µM
TGI [24]: 27.9 µM
GI50 [25]: 14.4 µM
TGI [25]: 32.4 µM
GI50 [26]: 14.4 µM
TGI [26]: 44.9 µM
GI50 [27]: 11.4 µM
TGI [27]: 32.4 µM
GI50 [28]: 9.25 µM
TGI [28]: > 100 µM
GI50 [29]: 5.75 µM
TGI [29]: 45.6 µM
GI50 [30]: 14.8 µM
TGI [30]: 29.5 µM
GI50 [31]: 16.2 µM
TGI [31]: 34.4 µM
GI50 [32]: 11.9 µM
TGI [32]: 28.1 µM
GI50 [33]: 13.7 µM
TGI [33]: 29.4 µM
GI50 [34]: 12.6 µM
TGI [34]: 26.4 µM
GI50 [35]: 12.7 µM
TGI [35]: 58.1 µM
GI50 [36]: 16.9 µM
TGI [36]: 42.5 µM
GI50 [37]: 19.6 µM
TGI [37]: > 100 µM
GI50 [38]: 11.3 µM
TGI [38]: 24.1 µM
GI50 [39]: 3.52 µM
TGI [39]: 15 µM
GI50 [40]: 12.8 µM
TGI [40]: 26.5 µM
GI50 [41]: 16.4 µM
TGI [41]: 33.8 µM
GI50 [42]: 10.2 µM
TGI [42]: 23 µM
GI50 [43]: 15 µM
TGI [43]: 32.7 µM
GI50 [44]: 2.99 µM
TGI [44]: 15.8 µM
GI50 [45]: 7.52 µM
TGI [45]: 46.8 µM
GI50 [46]: 14 µM
TGI [46]: 28.3 µM
GI50 [47]: 8.92 µM
TGI [47]: 24 µM
GI50 [48]: 12.9 µM
TGI [48]: 31.8 µM
GI50 [49]: 8.25 µM
TGI [49]: 27 µM
GI50 [50]: 15.9 µM
TGI [50]: 30 µM
GI50 [51]: 18.9 µM
TGI [51]: > 100 µM
GI50 [52]: 15.6 µM
TGI [52]: 31.1 µM
GI50 [53]: 15.5 µM
TGI [53]: 34.9 µM
GI50 [54]: 11.2 µM
TGI [54]: 33.9 µM
GI50 [55]: 9.57 µM
TGI [55]: 28.6 µM
GI50 [56]: 18.2 µM
TGI [56]: 69.2 µM
GI50 [57]: 15.7 µM
TGI [57]: 35 µM
GI50 [58]: 13.7 µM
TGI [58]: 33.2 µM

C=CC[Se]C(=O)c1cncc(C(=O)[Se]CC=C)c1
GI50 [1]: 1.89 µM
TGI [1]: 3.4 µM
GI50 [2]: 1.92 µM
TGI [2]: 3.79 µM
GI50 [3]: 2.73 µM
TGI [3]: 7.74 µM
GI50 [4]: 2.22 µM
TGI [4]: 4.73 µM
GI50 [5]: 1.74 µM
TGI [5]: 3.21 µM
GI50 [6]: 1.71 µM
TGI [6]: 3.14 µM
GI50 [7]: 1.03 µM
TGI [7]: 2.44 µM
GI50 [8]: 1.36 µM
TGI [8]: 2.65 µM
GI50 [9]: 1.71 µM
TGI [9]: 3.24 µM
GI50 [10]: 1.65 µM
TGI [10]: 3.03 µM
GI50 [11]: 0.431 µM
TGI [11]: 1.53 µM
GI50 [12]: 2.17 µM
TGI [12]: 5.18 µM
GI50 [13]: 1.06 µM
TGI [13]: 2.26 µM
GI50 [14]: 1.88 µM
TGI [14]: 3.79 µM
GI50 [15]: 1.79 µM
TGI [15]: 3.35 µM
GI50 [16]: 3.15 µM
TGI [16]: 10.7 µM
GI50 [17]: 0.782 µM
TGI [17]: 2.22 µM
GI50 [18]: 0.525 µM
TGI [18]: 2.23 µM
GI50 [19]: 2.45 µM
TGI [19]: 6.38 µM
GI50 [20]: 0.261 µM
TGI [20]: 0.756 µM
GI50 [21]: 3.57 µM
TGI [21]: 47.8 µM
GI50 [22]: 1.34 µM
TGI [22]: 2.76 µM
GI50 [23]: 1.55 µM
TGI [23]: 3.16 µM
GI50 [24]: 1.68 µM
TGI [24]: 3.72 µM
GI50 [25]: 1.74 µM
TGI [25]: 3.35 µM
GI50 [26]: 1.94 µM
TGI [26]: 6.82 µM
GI50 [27]: 1.8 µM
TGI [27]: 3.54 µM
GI50 [28]: 0.386 µM
TGI [28]: 1.5 µM
GI50 [29]: 2.64 µM
TGI [29]: 7.67 µM
GI50 [30]: 1.51 µM
TGI [30]: 2.94 µM
GI50 [31]: 0.544 µM
TGI [31]: 1.8 µM
GI50 [32]: 1.31 µM
TGI [32]: 2.82 µM
GI50 [33]: 1.71 µM
TGI [33]: 3.69 µM
GI50 [34]: 3.28 µM
TGI [34]: 10.3 µM
GI50 [35]: 3.02 µM
TGI [35]: 27.1 µM
GI50 [36]: 2.88 µM
TGI [36]: 10.5 µM
GI50 [37]: 0.628 µM
TGI [37]: 1.92 µM
GI50 [38]: 0.382 µM
TGI [38]: 3.07 µM
GI50 [39]: 3.3 µM
TGI [39]: 8.93 µM
GI50 [40]: 2.21 µM
TGI [40]: 5.55 µM
GI50 [41]: 1.8 µM
TGI [41]: 4 µM
GI50 [42]: 0.434 µM
TGI [42]: > 100 µM
GI50 [43]: 1.81 µM
TGI [43]: 3.31 µM
GI50 [44]: 1.68 µM
TGI [44]: 3.1 µM
GI50 [45]: 2.42 µM
TGI [45]: 7.28 µM
GI50 [46]: 3.03 µM
TGI [46]: 10.9 µM
GI50 [47]: 1.95 µM
TGI [47]: 3.81 µM
GI50 [48]: 1.39 µM
TGI [48]: 2.96 µM
GI50 [49]: 1.99 µM
TGI [49]: 3.85 µM
GI50 [50]: 1.92 µM
TGI [50]: 4.86 µM
GI50 [51]: 2.23 µM
TGI [51]: 6.82 µM
GI50 [52]: 1.85 µM
TGI [52]: 3.27 µM
GI50 [53]: 3.65 µM
TGI [53]: 10.6 µM
GI50 [54]: 1.46 µM
TGI [54]: 3.08 µM
GI50 [55]: 1.94 µM
TGI [55]: 3.68 µM
GI50 [56]: 2.14 µM
TGI [56]: 5.14 µM
GI50 [57]: 1.8 µM
TGI [57]: 3.46 µM
GI50 [58]: 1.43 µM
TGI [58]: 3.03 µM
